One data set deals with NCI-H69. The data set is described as follows: CellTiter-Glo luminescent cell viability assay. In kind it is cell-based. As to conditions: Homo sapiens. The method, then: (§1) The objective of this study is to investigate potential cell killing effect of Compounds 1-15 on 3 cancer cell lines. 50% inhibition concentration (IC50) was determined for these compounds in various cancer cell lines using CellTiter-Glo™ luminescent cell viability assay at different compound concentrations. Each cell line (e.g., NCI-H209; NCI-H69; and SW1271) was treated with Compounds 1-15 and culture medium contains 0.2% [v/v] DMSO vehicle control. All the cells were cultured in the media supplemented with 10-20% fetal bovine serum at 37° C., 5% CO2 and 95% humidity.
In general terms: In ATP-based viability assays light output follows the ATP content of the culture.

A short description of a further data set: Human microsomal CL rate. In kind it is in vitro ADME. The following applies: human microsomes.
The next data set concerns NCI-H209. The data set can be described thus: CellTiter-Glo luminescent cell viability assay. Type of data set: cell-based. As to conditions: Homo sapiens. How it is done:
as §1

The next data set deals with SK-HEP-1. The data set can be described thus: CellTiter-Glo cell viability, liver cell lines, 8 days. The following applies: Homo sapiens, SK-HEP1, SK-HEP-1, Table 5, similar experiment. Type of data set: cell-based. The method, then: (§2) The objective of this study is to investigate the effect of Compound 1 on cell viability of various types of liver cancer. Ten (10) different liver cancer cell lines were employed in the study. Each liver cell line shown in Table 4 was treated with Compound 1, pentamidine, as reference control, a standard of care (cisplatin) and culture medium contains 0.2% [v/v] DMSO vehicle control and IC50 values were obtained as described above. The raw data values from the CellTiter-Glo™ cell viability assay expressed in relative luminescence units were normalized to the vehicle for each individual plate, and any reduction in luminescence indicated a decrease in viability (%). The data was analyzed in GraphPad PRISM using a non-linear sigmoidal plot with variable slope (asymmetric four-point linear regression), and an IC50 value for each compound was generated. The experiment tested pentamidine, compound 1, and standard-of-care control Cisplatin in full growth media for 8 days. Cells were initially treated with the test compounds on Day 0, and the cells were then replenished with fresh compound dilutions on Day 3. Pentamidine, Compound 1, and cisplatin were tested at 9 concentration points; 100, 33.33, 11.11, 3.70, 1.23, 0.41, 0.14, 0.05, and 0.02 μM (final DMSO concentration=0.5%). In particular, the IC50 values of pentamidine and Compound 1 were 0.8 and 0.6 μM in Hep3B-luc, respectively.

The subject of the next data set is HEP3B2.7-1. The description is as above. Type of data set: cell-based. As to conditions: HEP3B2.7-1, Table 5, similar experiment. The method, then:
as §2

Data set [1] can be described thus: Pharmacokinetics in liver and tissues after oral administration. In kind it is in vivo, mice. The following applies: p.o. The method, then:
Compound 1 (20 mg per kg), Compound 5 (10 mg per kg), and pentamidine (20 mg per kg) were tested for their PK. Tissue samples were collected as described above in Example 23. Briefly, blood samples (approximately […]) were collected under light isoflurane anesthesia from retro orbital plexus of mice at 0.5, 1, 3, 8, 48 and 72 hr. Plasma samples were separated by centrifugation at 2,000×g for 6 minutes and stored below −70±10° C. until bioanalysis. Immediately after collection of blood, animals were euthanized using excess CO2 asphyxiation and samples were collected from set of five mice at each time point. Collected tissue samples were immediately dipped and rinsed three times in ice cold PBS (for 5-10 seconds/rinse using ˜5-10 mL fresh PBS in disposable petri dish for each rinse) and dried on blotting paper. Tissue samples were homogenized using ice-cold phosphate buffer saline (pH7.4) and homogenates were stored below −70±10° C. until analysis. Total homogenate volume was three times the tissue weight except for liver samples, total homogenate volume was ten times the liver weight. Bioanalysis process was determined by fit-for-purpose LC-MS/MS method.
Calibration standards were prepared by spiking the test compound into blank plasma. 10 μL of working calibration standard was spiked into 190 μL of blank Mice Plasma or tissue homogenate to generate linearly spiked calibration standards. Calibrator concentrations were 5,000, 2,000, 1,000, 200, 100, 20, 10, 2 and 1 ng/mL. Calibration standard samples were processed along with the test samples. Twenty-five μL aliquots of plasma or tissue homogenate test samples were treated with 100 μL of acetonitrile containing internal standard (500 ng/mL Glipizide). Samples were vortexed for 5 minutes. Samples were centrifuged for 10 minutes at a speed of 4000 rpm at 4° C. Following centrifugation, 100 μL of clear supernatant was transferred in 96-well plates of and analyzed using LC-MS/MS. Chromatographic separation was achieved using a Kintex Polar column (C18, 100×4.6 mm, 5μ) and column oven temperature 45° C. For compound 1 diHCl the mobile phase A was water with 0.1% formic acid in Acetonitrile; mobile phase B was 10 mM ammonium formate. However, the mobile phase for pentamidine and Compound 5 mobile phase A was water with 0.1% formic acid and mobile phase B acetonitrile with 0.1% formic acid.
The gradient program for Compound 1 was as follows: 5% B (1-2.40 min), 90% B (2.60-3.00 min), and the initial for B was 90%. The retention rate was 1.47 per minute and the internal standard Glipizide was 1 per 9 minutes. The column was maintained at 45° C. For pentamidine and Compound 5, analysis was performed using 233 MassSpec by AB Sciex API5000 with Turbo Ion Spray interface operating in a positive ionization mode. Quantification was performed using multiple reaction monitoring (MRM) method with the transitions of (m/z) 328 à (m/z) 311 for Compound 5 and (m/z) 548 à (m/z) 366 for Edoxaban (internal standard). While, for pentamidine (m/z) 341 à (m/z) 324 and (m/z) 548 à (m/z) 366 for Verapmil (internal standard).
The gradient program for Compound 5 was as follows: 10% B (0-0.2 min), 95% B (1.5-2 min), the initial for B was 10% and it stopped at 2.6 mins. The flow rate was 0.5 mL/min. The gradient program for pentamidine was as follows: 10% B (0-0.2 min), 95% B (1.4-2 min), the initial for B was 10% and it stopped at 2.5 mins. The flow rate was 0.5 mL/min.

The subject of data set [2] is A549-NLR cells with anti-CD3 stimulated PBMC. The data set can be described thus: Primary human T cell killing assay. Type of data set: cell-based. How it is done: In this study, A549-NLR cells were cultured alone or with PBMC's isolated from blood of three healthy donors in the presence of anti-CD3 stimulation. […] A549 growth was quantified by enumerating NucLight+ cells and A549 apoptosis by Caspase-3/7+ expression (colocalised to NucLight signal) every 2 hours for 96 hours.
All test conditions were applied to A549-NLR cells in the presence of stimulated PBMC. The number of A549 cells was tracked by IncuCyte live cell imaging over 96 hrs. The number of A549 cells at each time-point was counted and expressed as a percentage of the starting number (on a per well basis). At each time-point, the frequency of target cell apoptosis was quantified.

In another data set the test system is SW1271. The data set is described as follows: CellTiter-Glo luminescent cell viability assay. Type of data set: cell-based. The method, then: as §1

Each structure is given as a SMILES string.

Consider `N=C(N)c1ccc(O[C@H]2CC[C@@H](Oc3ccc(C(=N)N)nc3)CC2)cc1` [Compound 14, 5-(((1s,4s)-4-(4-carbamimidoylphenoxy)cyclohexyl)oxy)picolinimidamide], for which, in the data set with NCI-H69, the IC50 (in general, the midpoint of a concentration-inhibition curve) turned out to be 1.1 µM. In addition, the microsomal CLint – broadly, a measure of how fast metabolising enzymes remove a compound, apart from limits set by blood flow – in the data set “Human microsomal CL rate” was determined as 15.3 µL/min/mg.

`N=C(N)c1ccc(OCCCOc2ccc(C(=N)N)nc2)cc1` [Compound 17, 5-(3-(4-carbamimidoylphenoxy)propoxy)picolinimidamide] came in with a microsomal CLint in the data set “Human microsomal CL rate” of 8.1 µL/min/mg.

For `N=C(N)c1ccc(OCCCCOc2ccc(C(=N)N)nc2)cc1` [Compound 5, 5-(4-(4-carbamimidoylphenoxy)butoxy)picolinimidamide], the IC50 came out at 2.78 µM in the data set on NCI-H209, 0.876 µM with NCI-H69, 0.73 µM with SK-HEP-1 and 0.207 µM in the data set with HEP3B2.7-1. For the same compound, in data set [1] (Compound 1 20 mpk, Compound 5 10 mpk), the “exposure to the liver vs pentamidine (20 mpk)” value is recorded as “greater exposure to the liver than pentamidine”. Besides, the “half-life relative to Compound 1” value in data set [1] (liver) was “approximately 3 fold”. For the same compound, in data set [1] (liver), the half-life vs pentamidine entry is reported as “higher half-life than pentamidine”. Moreover, the tissue exposure entry in data set [1] (liver, small intestine, ileum) is “increased exposure in the liver as well as small intestine and ileum”. Moreover, the “exposure to the plasma” value in data set [1] (plasma vs other tissues) is reported as “low in comparison to other tissues”. The compound also returned a microsomal CLint in the data set “Human microsomal CL rate” of 3.9 µL/min/mg.

As for `N=C(N)c1ccc(OCCCCCOc2ccc(C(=N)N)nc2)cn1` [Compound 20, 5-({5-[(6-carbamimidoylpyridin-3-yl)oxy]pentyl}oxy)pyridine-2-carboximidamide], the microsomal CLint in “Human microsomal CL rate” was found to be 4 µL/min/mg.

`N=C(N)c1ccc(OCCCCCOc2cnc(C(=N)N)cn2)cc1` [Compound 4, 5-((5-(4-carbamimidoylphenoxy)pentyl)oxy)pyrazine-2-carboximidamide]: the results for the IC50 with SK-HEP-1 and in the data set with HEP3B2.7-1 were 5.95 µM and 1.91 µM, respectively.

The compound `N=C(N)c1cnc(OCCCCCOc2cnc(C(=N)N)cn2)cn1` [Compound 7, 5,5′-(pentane-1,5-diylbis(oxy))bis(pyrazine-2-carboximidamide)] registered an IC50 with NCI-H69 of 0.804 µM. Moreover, in data set [2] (0.3, 1 and 3 μM, three donors, 96 hours), the “immune cell-mediated A549 cell apoptosis (Caspase-3/7+)” value is listed as “enhancement of immune cell-mediated A549 cell apoptosis in 2 of 3 donors in a dose dependent manner”. Also, the “effect compared with positive control (IL-2)” value in data set [2] (highest concentration tested (3 μM)) is reported as “comparable effect to the positive control (IL-2)”.

`N=C(N)c1ccc(O[C@H]2CC[C@H](Oc3ccc(C(=N)N)nc3)CC2)cc1` [Compound 13, 5-(((1r,4r)-4-(4-carbamimidoylphenoxy)cyclohexyl)oxy)picolinimidamide] gave an IC50 in the data set on NCI-H69 of 2.11 µM. The same compound displayed a microsomal CLint in “Human microsomal CL rate” of 11 µL/min/mg.

In turn, `N=C(N)c1cncc(CCCCCCCc2cncc(C(=N)N)c2)c1` [Compound 9, 5,5′-(heptane-1,7-diyl)dinicotinimidamide] had an IC50 in the data set on NCI-H69 of 5.28 µM. Besides, the microsomal CLint in the data set “Human microsomal CL rate” stood at 13 µL/min/mg.

Take `N=C(N)c1ccc(OCCCCCOc2ccnc(C(=N)N)c2)cc1` [Compound 19, 4-{[5-(4-carbamimidoylphenoxy)pentyl]oxy}pyridine-2-carboximidamide]: the IC50 in the data set with SK-HEP-1 came to 0.84 µM; with HEP3B2.7-1, 0.222 µM. This compound also returned a microsomal CLint in the data set “Human microsomal CL rate” of 27.7 µL/min/mg.

Regarding `N=C(N)c1cccc(CCCCCCCc2cccc(C(=N)N)n2)n1` [Compound 8, 6,6′-(heptane-1,7-diyl)dipicolinimidamide], the IC50 in the data set on NCI-H69 was 0.687 µM. The compound also came in with a microsomal CLint in the data set “Human microsomal CL rate” of 11 µL/min/mg.

As to `N=C(N)c1ccc(CC[C@@H]2CCC[C@H](CCc3ccc(C(=N)N)nc3)C2)cc1` [Compound 18, 5-{2-[(1R,3S)-3-[2-(4-carbamimidoylphenyl)ethyl]cyclohexyl]ethyl}pyridine-2-carboximidamide], the microsomal CLint in “Human microsomal CL rate” was determined as 9.5 µL/min/mg.

With `N=C(N)c1ccc(OCCCCCOc2ccnc(C(=N)N)c2)cn1` [Compound 12, 4-((5-((6-carbamimidoylpyridin-3-yl)oxy)pentyl)oxy)picolinimidamide], the IC50 in the data set with NCI-H69 worked out at 1.58 µM. In “Human microsomal CL rate”, the microsomal CLint came out at 7.5 µL/min/mg.

On to `N=C(N)c1ccc(OCCCCCOc2ccc(C(=N)N)cn2)cc1` [Compound 2, 6-((5-(4-carbamimidoylphenoxy)pentyl)oxy)nicotinimidamide], for which the values for the IC50 with NCI-H209, in the data set with SW1271 and in the data set with NCI-H69 were 9.38 µM, 1.6 µM and 3.48 µM, respectively. Besides, the microsomal CLint in “Human microsomal CL rate” turned out to be 9.8 µL/min/mg.

`N=C(N)c1cccc(OCCCCCOc2ccnc(C(=N)N)c2)c1` [Compound 15, 4-(5-(3-carbamimidoylphenoxy)pentyloxy)picolinimidamide] came in with an IC50 in the data set with NCI-H69 of 0.49 µM. Moreover, the microsomal CLint in “Human microsomal CL rate” amounted to 3.2 µL/min/mg.

`N=C(N)c1cccc(OCCCCCOc2ccc(C(=N)N)nc2)c1` [Compound 11, 5-(5-(3-carbamimidoylphenoxy)pentyloxy)picolinimidamide]: the midpoint of inhibition in the data set with NCI-H69, the IC50, lay at 0.62 µM. Also, the microsomal CLint in “Human microsomal CL rate” turned out to be 5.2 µL/min/mg.

Turning to `N=C(N)c1ccc(OCCCCCOc2cnc(C(=N)N)nc2)cc1` [Compound 3, 5-((5-(4-carbamimidoylphenoxy)pentyl)oxy)pyrimidine-2-carboximidamide], the IC50 is 3.47 µM in the data set with NCI-H209, 3.47 µM in the data set with SW1271 and 2.91 µM with NCI-H69.

The compound `N=C(N)c1ccc(CCCCCCCc2ccc(C(=N)N)cn2)nc1` [Compound 10, 6,6′-(heptane-1,7-diyl)dinicotinimidamide] yielded an IC50 in the data set with NCI-H69 of 22.2 µM.

In “Human microsomal CL rate”, `N=C(N)c1ccc(OCCCCOc2ccc(C(=N)N)nc2)cn1` [Compound 16, 5,5′-(butane-1,4-diylbis(oxy))dipicolinimidamide] showed a microsomal CLint of 4.6 µL/min/mg.

The compound `N=C(N)c1cc(OCCCCCOc2ccnc(C(=N)N)c2)ccn1` [Compound 21] came in with a microsomal CLint in “Human microsomal CL rate” of 5.1 µL/min/mg.
